Measurements taken from patent US20250134820A1, “PHARMACEUTICAL COMPOSITIONS” (Novartis AG, priority 2021, published 2025).
Where a name gives a salt, the structure may show the parent alone. Each block holds one compound with its values, some of them ahead of it.

How the values were obtained:
[1] = ADME/PK profile across tested species; format: in vivo
Description: (§1) GastroPlus modeling predicted dissolution and/or solubility limitations of the free form of Compound A at high doses.

[2] = Solubility and dissolution rate of the free form in biorelevant media; format: physicochemical
Description: as §1

[3] = Disproportionation (XRPD) of ASAP batches; format: physicochemical
Protocol: The compatibility of Compound A fumarate was further evaluated in 21 days ASAP study involving three different formulation principles, wet granulation, dry blending and roller compaction. The drug load selected for study was 5% w/w, translating to 6.40% w/w of fumarate salt. The XRPD of the samples were evaluated at certain time intervals according to the Safety Protocol in Table 5.
The analysis was done for the samples stored at 21 days.

[4] = Hygroscopicity, water uptake by DVS; format: physicochemical
Protocol: (§2) Solubility of the fumarate in FaSSIF is 0.09 mg/mL and 0.21 mg/mL in FeSSIF. […] The maximum water uptake by DVS is less than 0.1% up to 95% RH at 25° C.

[5] = Solubility of Compound A fumarate at 25° C.; format: physicochemical; settings: for solubility at 24 h: thermodynamic from solid
Protocol: as §2

[6] = pHmax of the fumarate salt; format: physicochemical; settings: estimated
Description: The pHmax of the fumarate salt is estimated to be about 4.5. An increase in pH above 4.5 may potentially increase the risk of disproportionation.

Clearance [1]: low to very low | Oral bioavailability [1]: good
Structure (SMILES): FC(F)OC1=CC(C(F)(F)F)=CN2C[C@@]3(CCC(F)(F)c4c3ccnc4Cl)N=C12 [Compound A, (S)-1′-chloro-8-(difluoromethoxy)-8′,8′-difluoro-6-(trifluoromethyl)-7′,8′-dihydro-3H,6′H-spiro[imidazo[1,2-a]pyridine-2,5′-isoquinoline]]

Solubility [2]: poor | Dissolution rate ([2]; in biorelevant media): slow | Clearance [1]: low | Oral bioavailability [1]: moderate to high
Structure (SMILES): FC(F)OC1=CC(C(F)(F)F)=CN2C[C@@]3(CCC(F)(F)c4c3ccnc4Cl)N=C12 [free form of Compound A, (S)-1′-chloro-8-(difluoromethoxy)-8′,8′-difluoro-6-(trifluoromethyl)-7′,8′-dihydro-3H,6′H-spiro[imidazo[1,2-a]pyridine-2,5′-isoquinoline]]

Disproportionation result (XRPD) ([3]; 50° C./75% RH - 21 days): No free form peak | Disproportionation result (XRPD) ([3]; 60° C./80% RH - 21 days): No free form peak | Disproportionation result (XRPD) ([3]; 70° C./41% RH - 21 days): No free form peak | Disproportionation result (XRPD) ([3]; 80° C./50% RH - 21 days): No free form peak | Hygroscopicity [4]: non hygroscopic | Maximum water uptake by DVS ([4]; up to 95% RH at 25° C.): less than 0.1% | solubility at 24 h ([5]; 25 °C, aqueous buffer, pH 1.2 to pH 4.7): ≥ 2000 µg/mL | solubility at 24 h ([5]; acetate buffer pH 4.7, aqueous buffer, 25° C., pH 4.7 buffer (acetate)): > 2000 µg/mL | solubility at 24 h ([5]; hydrochloric acid buffer pH 1.2, simulated gastric fluid, 25° C., pH 1.2 buffer (hydrochloric acid)): > 2000 µg/mL | solubility at 24 h ([5]; hydrochloric acid buffer pH 2, simulated gastric fluid, 25° C., pH 2 buffer (hydrochloric acid)): > 2000 µg/mL | solubility at 24 h ([5]; organic solvent or mixture, 25° C., Acetonitrile): > 100000 µg/mL | solubility at 24 h ([5]; organic solvent or mixture, 25° C., Ethanol): > 100000 µg/mL | Solid residues obtained after 24h equilibration ([5]; pH values of 5.4 and above): correspond to the free form | solubility at 24 h ([5]; phosphate buffer pH 6.8, aqueous buffer, 25° C., pH 6.8 buffer (phosphate)): 30 µg/mL | solubility at 24 h ([5]; 25° C., Water): > 2000 µg/mL | solubility at 24 h ([5]; 25° C., pH 2.0 (SGF), simulated gastric fluid): > 2000 µg/mL | solubility at 24 h ([5]; 25° C., pH 5.8 (FeSSIF), fed state simulating intestinal fluid): 210 µg/mL | solubility at 24 h ([5]; 25° C., pH 6.5 (FaSSIF), fasted state simulating intestinal fluid): 90 µg/mL | pHmax [6]: about 4.5
Structure (SMILES): FC(F)OC1=CC(C(F)(F)F)=CN2C[C@@]3(CCC(F)(F)c4c3ccnc4Cl)N=C12 [Compound A fumarate, (S)-1′-chloro-8-(difluoromethoxy)-8′,8′-difluoro-6-(trifluoromethyl)-7′,8′-dihydro-3H,6′H-spiro[imidazo[1,2-a]pyridine-2,5′-isoquinoline]]
